In PMC12188386, “Selective CBP/EP300 Bromodomain Inhibitors: Novel Epigenetic Tools to Counter TNF-α-Driven Inflammation” (JACS Au, 2025):
Like-named read-outs stand apart in the source and are kept apart here.

Columns and labels:
CBP-BRD [1] = target: CBP-BRD; parameters: method as in Pegg et al., 2017; Brooks et al., 2017; conditions: SPR, ref Pegg et al., 2017, Brooks et al., read-out: Affinity to CBP-BRD, Kd; cited from earlier work
BRD4(1)-BRD = conditions: cited from earlier work
CBP-BRD [2] = conditions: ITC; ref Picaud et al., 2015; Popp et al., 2016; read-out: Affinity to CBP-BRD, Kd; cited from earlier work
MRC5 cells = assay: viability assay (resazurin); assay type: cell-based; conditions: three-day treatment, concentration resulting in 70 % viability
Description: MRC5 (2x10^3 cells/well) or THP-1 (8x10^3 cells/well) cells were plated onto 96 well plates and treated with compounds at a final DMSO concentration of 0.5 % (MRC5) or 0.1 % (THP-1).
After 3 days of treatment, resazurin (Acros Organics) was added at a final concentration of 86 μ and incu ated for 2h15 (MRC5) or 3 h (THP-1). Fluorescence (ex. 560 nm, em. 590 nm) was read using a SpectraMax M5 (Molecular devices). GI30 values were calculated as the compound concentration resulting in 70 % viability compared to DMSO treated controls using a nonlinear regression fit using GraphPad Prism with the following equation: (Y=Bottom + (100-Bottom)/(1+(IC50/X)^HillSlope)). […]
After 1.5 h, mice were injected with 10 µL of the prepared CAPTISOL […]
foodpad and also intraperitoneally (for i.p. injection, the 10 µL of CAPTISOL solution was diluted to a final volume of 100 µL using PBS). Organs were collected 5 h after TNF-α […]
LEGENDPlexTM assays (Mouse Pro-inflammatory Chemokine Panel and Mouse Inflammation Panel; Biolegend) were performed to monitor cytokine/chemokine expression. Briefly, popliteal LNs were collected and carefully disrupted in […] ice-cold phosphate buffer, minimizing cell rupture. The suspension was centrifuged at 1,500 rpm for 5 min, and the […]

[3] = concentration in saturated 12.5% CAPTISOL solution; assay type: physicochemical; conditions: filtered 12.5 w/v% CAPTISOL in water, st. dev. between technical replicates (n=2)
Description: (§1) was used as the calibration curve. To obtain saturated solutions of the compounds of interest, in duplicates 4.4 µL of a 10 or 5 mM stock in DMSO was added to 436 µL Buffer (PBS, pH = 7.4), to give a final concentration of 100 or 50 µM. Samples were incubated on a shaker (500 rpm) at 37°C for 90 minutes and then filtered (Millex-GV 13 mm, 0.22 µm). 304 µL of the filtrate was mixed with 76 µL of acetonitrile on a dilution plate, from which 350 µL was transferred to a UV-plate and UV-absorption was read using a SpectraMax M5 (Molecular devices). The absorbance was blank-corrected and compared to the calibration curve to […]
(§2) solubility. The wavelengths used for the calibration curve are available in Table S4.
Sample preparation in CAPTISOL® […]
(§3) lower solubility (2) compounds respectively in a 12.5 w/v% CAPTISOL® solution in water. In a precisely tared vial, required amounts of compounds and CAPTISOL® were weighed out as solids. Based on the known density of 12.5 % CAPTISOL® solution (d = 1.05755 g/mL at 25 °C), the precise weight of the resulting solution and so the required amount of water by weight was calculated. The water was added portion wise with agitation, vortexing and sonication cycles in between additions. The saturated solutions were then filtered (Millex-GV 13 mm, 0.22 µm). In duplicates, aliquots of the filtrates were taken and diluted with blank 12.5 % CAPTISOL® water solution in either a 1:14 (higher sol. compounds) or 1:7 (lower sol. compounds) ratio, 350 µL was transferred to a 96-Well Plate (Greiner, UV-star) then UV absorption (240-400 nm, 10 nm steps) was measured using a SpectraMax M5 (Molecular devices). The absorption was blank-corrected, compared to the calibration curve obtained during the solubility measurement method above and finally corrected for the dilution ratio to obtain the compound concentration in the saturated 12.5 % CAPTISOL® solution. The calculated concentrations are available in Table S4.
(§4) BROMOscan™ assays (provided by Eurofins DiscoverX, US)1,2 […]
coli host derived from the BL21 strain. […]

[4] = tested on: immune cell recruitment to the popliteal lymph node; assay: TNF-α induced inflammation model, flow cytometry of pLN; assay type: in vivo, mouse; conditions: mice, flow cytometry 5 h post-injection of rmTNF-α, vs control group
[5] = tested on: TNF-α-induced cytokine expression in THP-1 cells; assay: cytokine mRNA expression by RT-qPCR; assay type: cell-based, human; conditions: 1 h co-treatment of THP-1 cells with 10 ng/mL TNF-α and 1 μM compound
Description: For cytokine expression determination, 5x10^5 THP-1 cells were plated on 12 well plates the day prior to treatment with 10 ng/mL recombinant human TNF -α (aa 77-233) protein (R&D systems, 10291 -TA) and compounds at a final concentration of 0.1 % DMSO. In all cases, total
RNA was extracted using the NucleoSpin® RNA kit (Machery -Nagel) and used for cDNA synthesis with the High -Capacity cDNA Reverse Transcription kit (Applied Biosystems). RT-qPCR reactions were performed using PowerSYBR™ green PCR Master Mix (Applied Biosystems) and a LightCycler® 480 (Roche). cDNA was denatured for 10 min at 95 °C followed by 40 cycles of 15 s at 95 °C and 1 min at 60 °C. Cp values were determined as the maximum of the second derivative and target gene expression was compared to that of hprt from the same sample using the 2-ΔCp method. Gene expression was then normalized to the average of the control samples from the same day, or all biological replicates. […]

CBP-BRD [6] = conditions: TR-FRET; ref Crawford et al., 2016; read-out: Affinity to CBP-BRD, IC50 (Published); cited from earlier work
[7] = tested on: TNF-α-induced IL-8 secretion from THP-1 cells; assay: cytokine protein measurement (LEGENDPlex); assay type: cell-based, human; conditions: 10 ng/mL TNF-α, 1 μM compound
Description: For cytokine expression determination, 5x10^5 THP-1 cells were plated on 12 well plates the day prior to treatment with 10 ng/mL recombinant human TNF -α (aa 77-233) protein (R&D systems, 10291 -TA) and compounds at a final concentration of 0.1 % DMSO. In all cases, total […]
Cytokine protein measurements
THP-1 cells were plated and treated as for the quantitative RT -PCR, then the cell culture medium was harvested by pelleting the cells (300g, 3min) and taking the supernatant .
Cytokine protein concentrations were determined using the LEGENDPlexTM Human Inflammation Panel 1 (BioLegend) assay with 25 µL of culture medium following the manufacturer’s instructi ns. amp es were ana zed f w c t metr n an rtessa Biosciences), and data was analyzed using LEGENDPlex software (BioLegend).

kinetic solubility = assay type: physicochemical; conditions: PBS pH 7.4, 37°C, 90 min; ± st. dev. between technical replicates
Description: Starting from an initial concentration of 100, 50 or 20 µM, a 2-fold serial dilution of the compound (10 mM stock in DMSO) was prepared in a mixture of ACN/Buffer (PBS, pH = 7.4) 2:8, with 1% DMSO. 350 µL was transferred to a 96-Well Plate (Greiner, UV-star) then UV absorption (240-400 nm, 10 nm steps) was measured. The absorption was blank-corrected and plotted against concentration. The wavelength (λ) providing the best fitting straight line […]
as §1, §2
as §3, with “Based” for “lower solubility (2) compounds respectively in a 12.5 w/v% CAPTISOL® solution in water. In a precisely tared vial, required amounts of compounds and CAPTISOL® were weighed out as solids. Based”
as §4
coli host derived from the BL21 strain. E. coli were grown to log-phase and infected with T7 phage from a frozen stock (multiplicity of infection = 0.4) and incubated with shaking at 32°C until lysis (90-150 minutes). The lysates were centrifuged (5,000 x g) and filtered (0.2µm) to remove cell debris. Streptavidin-coated magnetic beads were treated with biotinylated small molecule or acetylated peptide ligands for 30 minutes at room temperature to generate affinity resins for bromodomain assays. The liganded beads were blocked with excess biotin and washed with blocking buffer (SeaBlock (Pierce), 1 % BSA, 0.05 % Tween 20, 1 mM DTT) to remove unbound ligand and to reduce non specific phage binding. Binding reactions were assembled by combining bromodomains, liganded affinity beads, and test compounds (see […]
Sodium azide, 7.4 mM DTT). All reactions were performed in polypropylene 384-well plates in a final volume of 0.02 mL. The assay plates were incubated at room temperature with […]
20). The beads were then resuspended in elution buffer (1x PBS, 0.05% Tween 20, 2 µM non-

**Q.** Which Kd (CBP-BRD [1]) does the source give for CO[C@H]1CC[C@H](n2c([C@@H]3CCCC(=O)N3c3ccc(F)c(F)c3)nc3cc(-c4c(C)noc4C)ccc32)CC1 [CCS1477] here?
**A.** Its Kd is 1.7 nM.

**Q.** What about the “Sel. over BRD4(1)-BRD” value (BRD4(1)-BRD; ref Pegg et al., 2017, Brooks et al.) of the same compound?
**A.** Its value is 130 fold.

**Q.** What does the source list for CCC(=O)N1CCOc2c(cc(-c3ccc(OC)c(OC)c3)cc2OC[C@H]2CCCN(C)C2)C1 [I-CBP112]?
**A.** Sel. over BRD4(1)-BRD (BRD4(1)-BRD; ref Picaud et al., 2015, Popp et al., 2016): 37 fold; Kd (CBP-BRD [2]): 151 nM

**Q.** For CC(=O)N1CCc2c(c(Nc3ccc(-c4cnn(C)c4)cc3F)nn2[C@H]2CCOC2)C1 [GNE-272, reference compound], which GI30 (MRC5 cells) is on record?
**A.** The GI30 was > 10 µM.

**Q.** And the “Conc. in 12.5% Captisol sol.” value [3]?
**A.** Its value is 715 ± 12 µM.

**Q.** And the “recruitment of lymphocytes (T and B cells), dendritic cells and neutrophils to the pLN” value [4]?
**A.** Its value is “significantly inhibited the recruitment of lymphocytes”.

**Q.** What about the “TNF-α-induced expression of il1β, il8, mcp-1 and tnf-α (mRNA)” value [5] of the same compound?
**A.** The value was “inhibited expression to a greater extent than the less potent but more soluble inhibitor 5”.

**Q.** And the IC50 (CBP-BRD [6])?
**A.** The IC50 was 20 nM.

**Q.** And the “TNF-α-induced IL-8 protein secretion” value [7]?
**A.** The value was “significantly reducing its TNF-α-induced secretion”.

**Q.** What about the “Kin. Sol.” value (kinetic solubility) of the same compound?
**A.** Its value is 75.1 ± 1.0 µM.
